From patent publication US6083941A, “Inhibition of NMDA receptor activity by pregnenolone sulfate derivatives” (Trustees of Boston University, priority 1998, dated 2000)
“And” between values parts separate entries of the source, which are not always exact repeats. Equal values may be shown once. Where a name gives a salt, the structure may show the parent alone.

Legend:
[1] = system: formalin pain in the mouse; test: Formalin paw lick analgesic test; type: in vivo; conditions: mice, i.p., 15 mg/kg
Procedure: Male CD-1 mice (Charles River laboratories, Wilmington, Mass.) weighing 20-25 g were used for the formalin test. Mice were injected intraperitoneally with the test compound dissolved in DMSO or with vehicle. Five minutes later 20 μl of 1% formalin was injected into the hind paw of each mouse. The time spent licking the injected paw was monitored for 25 minutes. The early phase of response was between 0-5 minutes and the late phase response was defined as the response between 5-25 minutes.

[2] = system: focal cerebral ischemia (MCA occlusion) in rats; test: Middle cerebral artery occlusion cerebral ischemia test; type: in vivo; conditions: for cortical infarct volume: treatment delayed until 30 min. after initiation of ischemia
Procedure: Male Wistar rats (200-250 g) were used. Anesthesia was induced with 3% halothane in 70% nitrogen balanced with oxygen. Rats were intubated and artificially ventilated with 2% halothane in a mixture of 30% oxygen and 70% nitrogen. Body temperature was maintained at 37.5° C. during surgery by means of a warming pad with a rectal probe connected to a feedback control unit. Both common carotid arteries (CCA) were isolated, and a loose silk ligature was placed around each artery. A vertical skin incision was made between the left orbit and the auditory canal. Under constant saline irrigation the posterior part of the zygoma was removed and a small opening (2.0/2.5 mm) drilled dorso-rostrally to the foramen ovale. The dura was opened with a microsurgical hook and the brain gently retracted with a small spatula to expose the bifurcation of the internal carotid artery and middle cerebral artery. After permanent ligation of the ipsilateral CCA, the middle cerebral artery (MCA) was coagulated from its origin to the olfactory tract. The contralateral CCA was occluded for a period of 2 hours. A bolus intravenous injection (1 ml) of test compound dissolved in 5% DMSO, 10% 2-hydroxy propyl-β-cyclodextrin in 100 mM sodium phosphate buffer, pH 7.4, was given either immediately after MCA occlusion or 30 minutes after MCA occlusion. An intravenous infusion of the test drug in the same vehicle was initiated immediately after the bolus injection. Twenty-two hours after MCA occlusion rats were euthanized, and the brains were sectioned into 2 mm slices and stained with tetrazoliumred (2,3,5-triphenyl tetrazolium chloride). Areas of brain damage were assessed using an image analyzer with the NIH Image program, and the volumes of cortical and subcortical infarction were estimated by integration of areas in serial.
Pregnanolone hemisuccinate produced significant neuroprotection in the MCAO cerebral ischemia model. […] Focal cerebral ischemia was induced in the left hemisphere of male rats by proximal coagulation of the middle cerebral artery. In addition, the ipsilateral common carotid artery was permanently occluded and the contralateral common carotid artery was occluded for 2 h. Five minutes after initiation of ischemia, rats were injected with an i.v. loading dose of 6.9 mg/kg 5β3αHS, followed by i.v. infusion of 5β3αHS at 6.9 mg/kg/h. […] Control rats were treated with vehicle. Infusion of 5β3αHS was continued for an additional 20 h, at which time the rats were sacrificed, and their brains were sliced and stained with the vital stain 2,3,5 triphenyl tetrazolium Cl.

AMPA receptors = test: Whole cell patch clamp, AMPA-induced current in cultured chick spinal cord neurons; type: cell-based; conditions: 100 μM steroid; -70 mV; sulfate
Procedure: Cultures of dissociated spinal cord neurons were prepared as previously described (Farb, D. H., et al., J. Cell Biol., 80:651-661 (1979)). Briefly, the dissociated cells from 7-day chick embryos were plated on collagen-coated 35-mm tissue culture dishes in Eagle's minimum essential medium supplemented with 2.4 mM glutamine, 10% (v/v) heat-inactivated horse serum, 5% (v/v) chick embryo extract and antibiotics. Cultures were maintained in a humidified atmosphere of 5% CO2, 95% air at 37°. Cytarabine (1 μM) was added to the culture medium after 36 hr. of the initial plating to inhibit the proliferation of non-neuronal cells. One day later, this medium was replaced with a similar medium supplemented with 20.5 mM glucose, 19 mM KCl, and 2.5% chick embryo extract. Fresh medium was added twice weekly. Cultured neurons were used in experiments within 2-4 weeks after plating.
Experiments were carried out in 35-mm tissue culture dishes on the stage of an inverted phase contrast microscope. Whole cell currents were recorded by the whole cell variant of the patch clamp technique (Hamill, O. P., et al., Pfagers Arch. 891:85-100 (1981)). Patch electrodes had tip openings of about […] and resistances of 3-8 M.OMEGA. using an intracellular solution comprised of the following (in mM): 140 CsCl, 11 EGTA, and 10 HEPES (pH adjusted to 7.2 with CsOH). […]

[3] = i.v. 6.9 mg/kg loading dose then 6.9 mg/kg/h, started 5 min. after onset of ischemia, versus vehicle

## CC(=O)[C@H]1CC[C@H]2[C@@H]3CC[C@@H]4C[C@H](OC(=O)CCC(=O)O)CC[C@]4(C)[C@H]3CC[C@]12C [5β3αHS, 3α-hydroxy-5β-pregnan-20-one hemisuccinate]
[1]; 0-5 minutes
  early phase response, formalin paw lick: no effect on the early response
[1]; 5-25 minutes
  late phase response, formalin paw lick: effective in blocking the late phase response
[2]; i.v. 6.9 mg/kg loading dose then 6.9 mg/kg/h
  sedation: Little or no sedation
[2]; [3]
  reduction in cortical infarct volume: 47±10%
  reduction in subcortical infarct volume: 26±6%
[2]
  cortical infarct volume: significantly reduced
[2]; listed as Pregnanolone hemisuccinate
  cortical infarct volume: significantly decreased
[2]; treatment immediately after cerebral ischemia
  infarction volumes of the cortical and subcortical brain regions: significantly decreased

## CC(=O)[C@H]1CC[C@H]2[C@@H]3CC[C@@H]4C[C@H](OS(=O)(=O)O)CC[C@]4(C)[C@H]3CC[C@]12C [5β3αS, 3α-hydroxy-5β-pregnan-20-one sulfate]
AMPA receptors
  inhibition of the 25 μM AMPA-induced current: 29% and 29.0±3.1%
